BindingDB's records for doi:10.1021/acs.jmedchem.8b00164 (Athenex, 2018)

Key:
[1] = Inhibition of human c-SRC expressed in mouse NIH/3T3 cells assessed as inhibition of cell growth in presence of 1.5% FCS by BrdU incorporation assay
[2] = Inhibition of human c-SRC expressed in mouse NIH/3T3 cells assessed as inhibition of cell growth in presence of 0.5% FCS

Q: Which IC50 [1] does the source give for O=C(Cc1ccc(-c2ccccc2)cn1)NCc1cccc(F)c1 here?
A: Its IC50 is 269 nM.

Q: Which IC50 [1] does the source give for O=C(Cc1ccc(-c2ccc(OCCN3CCOCC3)cc2)cn1)NCc1cccc(F)c1 here?
A: The IC50 was 118 nM.

Q: With O=C(Cc1ccc(-c2ccccc2)cc1)NCc1cccc(F)c1 as the molecule, how does the IC50 [1] read?
A: The IC50 was 349 nM.

Q: What does the source list for O=C(Cc1ccc(-c2ccc(OCCN3CCOCC3)cc2)cn1)NCc1ccccc1 [N-benzyl-2-(5-(4-(2-morpholinoethoxy)phenyl)pyridin-2-yl)acetamide]?
A: IC50 [2]: 6.5 nM; IC50 [1]: 13 nM
